Reference: patent publication US20240002388A1, “PYRIMIDINONE COMPOUNDS AND USES THEREOF” (HUTCHISON MEDIPHARMA LIMITED, priority 2020, published 2024)

Legend:
[1] = target: RIPK1 recombination protein (Homo sapiens (Human), UniProt Q13546); test: RIPK1 kinase activity assay (ADP-Glo); format: biochemical; settings: for IC50: RIPK1 kinase activity, ADP-Glo, 10 μM ATP
Protocol: RIPK1 recombination protein: synthesized by Shanghai Medicilon Inc. under the commission by Hutchison MediPharma Limited (50 g of cell pellet was resuspended in 250 mL of lysis buffer (50 mM Tris, pH 7.5, 250 mM NaCl, 1 mM DTT, protease inhibitor 1:50), the cells were ultrasonically lysed using a sonicator (the power set to 4) on ice for 3×30 minutes; then centrifugation was carried out at 4° C., at 15,000 g for 30 minutes to clarify the suspension, the soluble pellet was resuspended into 10 mL of glutathione agarose, and incubated at 4° C. for 2 hours; then the beads were loaded into the column and washed with lysis buffer (no protease inhibitors) to baseline, and eluted with 20 mM of reduced glutathione (50 mM Tris, pH 8). The fractions identified by SDS-PAGE as containing the protein of interest were collected (10 mL of total volume), concentrated to about 5 mL and loaded into 300 mL superdex75 column (GE Healthcare) equilibrated with buffer (50 mM Tris, pH 7.5, 150 mM NaCl, 1 mM DTT, 10% glycerol, pH 7.5). RIP1 protein was eluted as a dimer from the superdex75 column. The protein concentration was determined by the Bradford assay using BSA as the standard. The yield was 12.5 mg at 0.63 mg/mL. The protein was aliquoted and frozen at −80° C. for later use.
ADP-Glo Kinase kit can be used to measure ADP level in kinase activity assay so as to distinguish the inhibitory effects of different compounds on RIPK1 kinase activity. The ADP-Glo assay was usually divided into three steps. Firstly, the kinase converted ATP to ADP and phosphorylated the substrate at the same time; secondly, ATP digestion reagent was added to degrade all ATP in the reaction system; finally, a detection reagent was added to reduce ADP to ATP, and energy from ATP was transferred to […] which thus emitting a chemical luminescence that can be detected. Assay procedure can refer to manufacture's technical manual.
(2) Reagent Preparation: • 1.33× kinase buffer: 5× kinase buffer stock (250 mM of NaCl, 150 mM of MgCl2, 2.5 mg/ml BSA (bovine serum albumin), 0.1% CHAPS (3-[(3-cholamidopropyl)-dimethyl-ammonio]-1-propane sulfonate), and 5 mM of dithiothreitol) was diluted with water to 1.33× kinase buffer; • RIPK1 enzyme solution: the kinase was dissolved in 1.33× kinase buffer to make 40 nM as the final working concentration; • ATP solution: 10 mM ATP stock solution in water was dissolved in 1.33× kinase buffer to make 10 μM as the final working concentration; • 4× compound preparation: the compound was diluted in a 3-fold gradient, and finally 4% DMSO aqueous solution containing different concentrations of the compound was obtained. The final concentrations of the test compound were 10, 3.33, 1.11, 0.37, 0.12, 0.04, 0.014, and 0.005 μM.
The assay set up two control groups, one was 100% inhibition group (no enzyme treatment), another was 0% inhibition group (no inhibitor treatment), each control group contained 8 replicate wells. 2.5 μl of serially diluted compound was added to each well of a 384-well plate, with double replicate wells, and 4% DMSO solution was added to control wells. Then 5 μl of RIPK1 enzyme solution was added to each well except 100% inhibition control, 5 ul of buffer was added to 100% inhibition control, after that, 2.5 μl of ATP solution was added to all wells, the plate was vibrated at 1000 rpm for 30 seconds to perform transient centrifuge; finally the 384-well assay plate was put in the shaking incubator, and incubated at room temperature for 3 hours. After the enzymatic reaction was completed, 5 μl of ATP depletion reagent was added to each well, the mixture was centrifuged transiently, then the 384-well assay plate was put in the shaking incubator, and incubated at room temperature for 1 hour. 5 μl of ADP detection reagent was added to each well, and the mixture was centrifuged transiently, and incubated at room temperature for 0.5 hour. […]

[2] = tested on: U937 cell line (human histiocytic lymphoma cell line); test: U937 cell viability assay (TNF-α + Z-VAD-FMK induced necroptosis); format: cell-based; settings: Homo sapiens, U-937; U937 cells, hTNF-α 0.1 μg/mL + Z-VAD-FMK 50 μM, 20 hours, CellTiter-Glo
Protocol: U937 cell line (human histiocytic lymphoma cell line): purchased from ATCC (American Type Culture Collection) Cell Bank, cultured in a 5% CO2, 37° C. incubator, and RPMI 1640 medium which contains L-glutamine, 1.5 g/L sodium bicarbonate, 2.383 g/L HEPES solution, 0.11 g/L sodium pyruvate and 4.5 g/L glucose, plus 10% fetal bovine serum (FBS) was used. • RPMI 1640 medium: GIBCO, Cat #A10491-01; • Fetal bovine serum (FBS): GIBCO, Cat #10099-141C; • Dimethyl sulfoxide (DMSO): Sigma, Cat #D2650; • Recombinant Human TNF-alpha Protein (hTNF-α): R&D system, Cat #210-TA-100; • Pan-Caspase inhibitor (Z-VAD-FMK): Selleckchem, Cat #S7023; • CellTiter-Glo 2.0 Cell Viability Assay kit: Promega, Cat #G9242; • Microwell plate reader: Envision, Perkin Elmer; • 96-well plate: Corning, Cat #3917.
The U937 cells at the logarithmic phase were taken out, centrifuged to remove the medium, washed with PRMI 1640 medium containing 1% FBS, and diluted with 1% FBS-containing RPMI 1640 medium to 2.5×10^5 cells/ml, inoculated at 70 μL/well into a 96-well plate, i.e., 1.75×10^4 cells/well. The plate was cultured in a 5% CO2, 37° C. cell incubator. After incubating for 1 hour, the test compound was diluted to the corresponding concentrations using DMSO with 3-fold serial dilution, then the corresponding concentration of DMSO diluted solution was diluted into 1% FBS-containing RPMI 1640 medium, and 10 μL/well of the diluted test compound with different concentrations (final concentration of test compound was 1.0, 0.333, 0.111, 0.037, 0.012, 0.004, 0.0014 and 0.0005 μM, while final concentration of DMSO was 0.3%) or 10 μL/well control solution (3% DMSO) were added to the cell culture system respectively, with the total volume being 80 μL/well; Then 10 μL of Z-VAD-FMK solution diluted with 1% FBS-containing RPMI 1640 medium (final concentration of 50 μM) or 10 μL of control solution (2.5% DMSO) was added to each well, with the total volume being 90 μL/well. The plate was incubated in a 5% CO2, 37° C. cell culture incubator for 1 hour.
After being cultured for 1 hour, 10 μL of human recombinant TNF-α protein diluted with 1% FBS-containing RPMI 1640 medium (final concentration of 0.1 μg/mL) or 10 μL/well control solution (1% FBS-containing RPMI 1640 medium) was added to each well. The plate was incubated in a 5% CO2, 37° C. cell culture incubator for 20 hours.
The cell culture plate was taken out from the incubator, and left to stand at room temperature for 30 minutes. Meanwhile, CellTiter-Glo viability assay kit was put from freezer to room temperature, and 50 μL of CellTiter-Glo reagent was added to all wells, the plate was shaken for 1 minutes, protected from light at room temperature for 10 minutes then read the plate on Envision to get the luminescence signal.
The 96-well plate in the dark was taken out, and the chemiluminescence was determined using the Envision microwell plate reader as the signal value of each well.
The mean signal value of the wells of the mixed solution of recombinant human TNF-alpha protein (final concentration of 0.1 μg/mL) and Pan-Caspase inhibitor (final concentration of 50 μM) was used as the lower value, and the mean signal value of the wells without stimulation was used as the upper value. According to the signal value of each well, the inhibition rate of each concentration of every compound was calculated, and the IC50 value of compound was obtained by Model 205 in XL-Fit 5.3 software (ID Business Solutions Limited).
Inhibition rate %=[(Luminescence readout of treated compound−Luminescence readout of positive control)/(Luminescence readout of negative control−Luminescence readout of positive control)]×100%, wherein

RIPK1 recombination protein, sequence (Q13546 other isoform, or with tags, fused parts or gaps): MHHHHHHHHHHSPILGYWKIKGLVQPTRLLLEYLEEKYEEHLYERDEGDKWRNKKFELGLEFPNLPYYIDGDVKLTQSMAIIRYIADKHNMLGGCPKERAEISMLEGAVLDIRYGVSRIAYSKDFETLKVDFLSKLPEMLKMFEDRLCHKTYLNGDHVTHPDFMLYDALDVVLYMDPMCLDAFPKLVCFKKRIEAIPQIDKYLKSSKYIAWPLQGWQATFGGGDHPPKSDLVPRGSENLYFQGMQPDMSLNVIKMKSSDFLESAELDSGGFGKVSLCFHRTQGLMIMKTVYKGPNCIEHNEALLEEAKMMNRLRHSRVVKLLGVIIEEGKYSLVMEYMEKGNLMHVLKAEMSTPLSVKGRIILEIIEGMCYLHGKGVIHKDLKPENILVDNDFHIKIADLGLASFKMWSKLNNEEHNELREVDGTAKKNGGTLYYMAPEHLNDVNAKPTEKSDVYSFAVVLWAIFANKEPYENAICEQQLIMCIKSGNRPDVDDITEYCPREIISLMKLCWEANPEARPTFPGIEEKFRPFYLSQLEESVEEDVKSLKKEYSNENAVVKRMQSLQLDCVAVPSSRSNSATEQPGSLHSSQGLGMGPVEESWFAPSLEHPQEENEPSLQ

IC50 [1] [nM]	inhibition at 3 µM ([1]; 3 μM compound, read-out: Inhibition rate at the compound concentration of 3 μM) [%]	Compound	IC50 [2] [nM]
189		C[C@@H](c1ccccc1)n1cnc(C(=O)NC2(c3ccc(-c4cncn(C)c4=O)cc3)CC2)n1 [Compound 56, (S)—N-(1-(4-(1-methyl-6-oxo-1,6-dihydropyrimidin-5-yl)phenyl)cyclopropyl)-1-(1-phenylethyl)-1H-1,2,4-triazole-3-carboxamide]	
53		Cn1cncc(-c2ccc(C3(NC(=O)c4n[nH]c(Cc5ccccc5)n4)CC3)c(F)c2)c1=O [Compound 48]	39
432		Cc1ncc(-c2ccc(C3(NC(=O)c4ncc5cnn(C(C)C)c5n4)CC3)cc2)c(=O)n1C [Compound 31]	
121		Cn1cncc(-c2ccc(C3(NC(=O)c4nc5n(n4)[C@H](c4ccccc4)CC5)CC3)cc2)c1=O [Compound 53, (S)—N-(1-(4-(1-methyl-6-oxo-1,6-dihydropyrimidin-5-yl)phenyl)cyclopropyl)-5-phenyl-6,7-dihydro-5H-pyrrolo[1,2-b][1,2,4]triazole-2-carboxamide]	554
139		C[C@@H](c1ccccc1)c1nnc(C(=O)NC2(c3ccc(-c4cncn(C)c4=O)cc3)CC2)[nH]1 [Compound 58, (S)—N-(1-(4-(1-methyl-6-oxo-1,6-dihydropyrimidin-5-yl)phenyl)cyclopropyl)-5-(1-phenylethyl)-4H-1,2,4-triazole-3-carboxamide]	
89		CC(C)n1ncc2cnc(C(=O)NC3(c4ccc(-c5cncn(C)c5=O)c(C(F)(F)F)c4)CC3)nc21 [Compound 24]	161
531		C[C@H](c1ccccc1)c1nnc(C(=O)NC2(c3ccc(-c4cncn(C)c4=O)cc3)CC2)[nH]1 [Compound 57, (R)—N-(1-(4-(1-methyl-6-oxo-1,6-dihydropyrimidin-5-yl)phenyl)cyclopropyl)-5-(1-phenylethyl)-4H-1,2,4-triazole-3-carboxamide]	
46		Cc1cc(C2(NC(=O)c3ncc4cnn(C(C)C)c4n3)CC2)ccc1-c1cncn(C)c1=O [Compound 27]	102
	82.5	CC(C)n1ncc2cnc(C(=O)NC3(c4ccc(-c5cncn(C)c5=O)cc4Cl)CC3)nc21 [Compound 32]	
39		Cn1c(N)ncc(-c2ccc(C3(NC(=O)c4nnc(Cc5ccccc5)[nH]4)CC3)cc2)c1=O [Compound 7]	68
